Results from patent publication US11524950B2, “Treatment of immune-related and inflammatory diseases” (Celgene Corporation, priority 2012, dated 2022).
Read-outs that look alike come from different tables or passages of the source.

What was measured:
GM-CSF = test: LPS-stimulated hPBMC cytokine production: GM-CSF; type: cell-based; conditions: Homo sapiens
Procedure: (§1) 50 ml human buffy coat was aliquoted 25 ml each into two 50 ml conical tubes and 25 ml sterile HBSS was added to each conical tube. The tubes were gently mixed by inverting. Fifteen ml of room temperature Ficoll-Paque Plus (GE Healthcare (location); cat #17-1440-02) was aliquoted into four 50 ml conical tubes. Then 25 ml of the Buffy coat/HBSS mixture was layered gently and slowly on top of the Ficoll. The samples were centrifuged at 450 rpm for 35 minutes. The top layered containing plasma was pipetted off and discarded. The interface containing mononuclear cells was transferred into two 50 ml conical tubes. Both conical tubes were filled to total volume of 50 ml with HBSS and centrifuged at 1200 rpm for 10 minutes. The cells were washed again in HBSS and spun at 1000 rpm for 10 minutes. Cell pellet was resuspended with 20 ml RPMI complete medium (RPMI/5% human sera/1× pen/strep/glut) and counted.
(§2) One hundred μl (2×10^6/ml) of hPBMCs were added to each well of a 96 well flat-bottom plate (final cell count=2×10^5/well) and incubated at 37° C. for 1 hour. […] compound was added to each test well and twenty μl medium containing 2.5% DMSO was added to each control well ([DMSO]final=0.25%) and plate was incubated for 1 hour at 37° C. Cells were then stimulated with […] 2.5 ng/ml LPS ([LPS]final=1 ng/ml) and incubated for 18 hours at 37° C.
(§3) 50 μl supernatant from each well was transferred into 3 new round-bottomed 96 well plates and stored at −20° C. for Luminex analysis. Duplicate wells were performed for each sample.
(§4) Supernatant samples were analyzed for cytokines in multiplex format according to the manufacturer's instructions (Millipore, Billerica, Ma 01821) using a Luminex IS100 instrument. IL-12 and GM-CSF analyses were done in a two-plex format using neat supernatants while all other cytokines were done in a multiplex format using supernatants diluted 1:20. Data analysis was performed using Upstate Beadview software. […] The IC50 were performed using GraphPad Prism v5.00. […]

IL-1β = test: LPS-stimulated hPBMC cytokine production: IL-1β; type: cell-based; conditions: Homo sapiens; LPS 1 ng/ml, 18 hours
Procedure: as §1, §2, §3, §4

MDC = test: LPS-stimulated hPBMC cytokine production: MDC; type: cell-based; conditions: Homo sapiens; LPS 1 ng/ml, 18 hours
Procedure: as §1, §2, §3, §4

RANTES = test: LPS-stimulated hPBMC cytokine production: RANTES enhancement; type: cell-based, human; conditions: at 0.1 μM
Procedure: as §1, §2, §3, §4

MIP-1β = test: LPS-stimulated hPBMC cytokine production: MIP-1β; type: cell-based; conditions: Homo sapiens; LPS 1 ng/ml, 18 hours
Procedure: as §1, with “Fifteen ml of room temperature Ficoll-Paque Plus (GE Healthcare (location); cat #17-1440-02) was aliquoted into four 50 ml conical tubes.” left out
Cells were then stimulated with […] 2.5 ng/ml LPS ([LPS]final=1 ng/ml) and incubated for 18 hours at 37° C.
as §3
IL-12 and GM-CSF analyses were done in a two-plex format using neat supernatants while all other cytokines were done in a multiplex format using supernatants diluted 1:20. Data analysis was performed using Upstate Beadview software. […] The IC50 were performed using GraphPad Prism v5.00. The data values represent the mean±SEM (standard error of the mean) of n (number of experiments in duplicate).

IL-6 = test: LPS-stimulated hPBMC cytokine production: IL-6; type: cell-based; conditions: Homo sapiens; LPS 1 ng/ml, 18 hours
Procedure: as §1, §2, §3, §4

NK cell IFN-γ production = test: NK IgG-induced interferon-gamma (IFN-gamma) assay; type: cell-based; conditions: Homo sapiens, 48 h
Procedure: NK cells from healthy donors were isolated from buffy coat blood by negative selection using the RosetteSep NK cell enrichment cocktail (Stem Cell Technologies, Vancouver, BC) prior to Ficoll-Hypaque (Fisher Scientific Co LLC, PA) density gradient centrifugation following the manufacturers' instructions. CD56+NK cells were isolated to ˜85% purity, as determined by flow cytometry (BD Biosciences, CA).
Ninety-six-well flat-bottom plates were coated with 100 μg/mL of human IgG (Sigma) overnight at 4° C. The next day, unbound IgG was washed away with cold 1×PBS. NK cells were then plated in the IgG-coated 96-well plates at 2×10^5 cells per well in 180 μL RPMI-1640 Media and 10 ng/mL of rhIL-2 (R & D Systems, MN) was added. Test compounds were added in a volume of […]. Final concentrations of test compounds were 0.0001, 0.001, 0.01, 0.1, 1, or 10 μM. Final DMSO concentrations were 0.25%. After 48 hours, the supernatants were harvested and analyzed by ELISA for IFN-γ production.
Data used to determine the ability of test compounds to enhance NK cell IFN-γ production in response to immobilized IgG and rhIL-2 stimulation was analyzed for each donor using GraphPad Prism v5.0 software.

IL-10 = test: LPS-stimulated hPBMC cytokine production: IL-10 enhancement; type: cell-based, human; conditions: at 0.1 μM
Procedure: as §1, §2, §3, §4

[1] = LPS 1 ng/ml, 18 hours, read-out: GM-CSF IC50

SMILES | IC50 (GM-CSF; [1]) [µM] | IC50 (IL-1β) [µM] | IC50 (MDC) [µM] | RANTES Mean % of Control (RANTES) | IC50 (MIP-1β) [µM] | IC50 (IL-6) [µM] | EC50 (NK cell IFN-γ production) [µM] | IL-10 Mean % of Control (IL-10) | IC50 (GM-CSF; 18 h, read-out: GM-CSF IC50 (μM)) [µM]
O=C1CC[C@@H](N2Cc3c(OCc4ccc(CN5CCOCC5)cc4)cccc3C2=O)C(=O)N1 [R-enantiomer, (R)-3-[4-(4-morphlin-4-ylmethylbenzyloxy)-1-oxo-1,3-dihydro-isoindo-2-yl]piperidine-2,6-dione] | 0.039 | 0.0062 | 0.012 | 151 % of control | > 10 | 0.083 | 0.016 | 442 % of control | –
O=C1CCC(N2Cc3c(OCc4ccc(CN5CCOCC5)cc4)cccc3C2=O)C(=O)N1 (racemic) [Racemate, 3-[4-(4-morphlin-4-ylmethylbenzyloxy)-1-oxo-1,3-dihydro-isoindo-2-yl]piperidine-2,6-dione] | – | 0.00085 | 0.0026 | 153 % of control | > 10 | 0.01 | 0.037 | 371 % of control | 0.0092
O=C1CC[C@H](N2Cc3c(OCc4ccc(CN5CCOCC5)cc4)cccc3C2=O)C(=O)N1 [Test compound, (S)-3-[4-(4-morphlin-4-ylmethylbenzyloxy)-1-oxo-1,3-dihydro-isoindo-2-yl]piperidine-2,6-dione] | 0.0022 | 0.00046 | 0.0021 | 153 % of control | > 10 | 0.0038 | 0.012 | 379 % of control | –
